Reference: US20150011508A1, “COMPOUNDS AND COMPOSITIONS AS C-KIT KINASE INHIBITORS” (priority 2011, published 2015)

Molecular target: T1, c-kit (Homo sapiens, UniProt P10721)
T1 construct: human Mo7e cells which endogenously express c-kit; endogenous in cells; host or cells: human Mo7e cells (SCF-dependent promegakaryocytic leukemia line)
Experiment: Mo7e cell proliferation assay (SCF dependent proliferation)
Assay type: cell-based
Settings: Table 1; human Mo7e cells stimulated with human recombinant SCF, 48 h, CellTiter Glo; 1% FBS (footnote)
Protocol: Compounds of Formula (I) and Formula (II) provided herein were assayed to measure their capacity to inhibit c-kit and PDGFR kinases using the appropriate assay described below: c-Kit inhibition was evaluated using the Mo7e cell proliferation assay, and PDGFR inhibition was evaluated using the Rat A10 cell proliferation assay and the Human TGHA-VSMC cell proliferation assay.
The compounds of Table 1 and Table 2 were tested for inhibition of SCF dependent proliferation using human Mo7e cells which endogenously express c-kit in a 384 well format. […] After 48 hours of incubation at 37° C., cell viability was measured by adding 25 uL of CellTiter Glo (Promega) to the cells and the luminescence was measured by a CLIPR CCD camera (Molecular Devices).
The IC50 value is given as that concentration of the test compound in question that provoke a response halfway between the baseline and maximum responses.

T1 sequence (P10721 26-976): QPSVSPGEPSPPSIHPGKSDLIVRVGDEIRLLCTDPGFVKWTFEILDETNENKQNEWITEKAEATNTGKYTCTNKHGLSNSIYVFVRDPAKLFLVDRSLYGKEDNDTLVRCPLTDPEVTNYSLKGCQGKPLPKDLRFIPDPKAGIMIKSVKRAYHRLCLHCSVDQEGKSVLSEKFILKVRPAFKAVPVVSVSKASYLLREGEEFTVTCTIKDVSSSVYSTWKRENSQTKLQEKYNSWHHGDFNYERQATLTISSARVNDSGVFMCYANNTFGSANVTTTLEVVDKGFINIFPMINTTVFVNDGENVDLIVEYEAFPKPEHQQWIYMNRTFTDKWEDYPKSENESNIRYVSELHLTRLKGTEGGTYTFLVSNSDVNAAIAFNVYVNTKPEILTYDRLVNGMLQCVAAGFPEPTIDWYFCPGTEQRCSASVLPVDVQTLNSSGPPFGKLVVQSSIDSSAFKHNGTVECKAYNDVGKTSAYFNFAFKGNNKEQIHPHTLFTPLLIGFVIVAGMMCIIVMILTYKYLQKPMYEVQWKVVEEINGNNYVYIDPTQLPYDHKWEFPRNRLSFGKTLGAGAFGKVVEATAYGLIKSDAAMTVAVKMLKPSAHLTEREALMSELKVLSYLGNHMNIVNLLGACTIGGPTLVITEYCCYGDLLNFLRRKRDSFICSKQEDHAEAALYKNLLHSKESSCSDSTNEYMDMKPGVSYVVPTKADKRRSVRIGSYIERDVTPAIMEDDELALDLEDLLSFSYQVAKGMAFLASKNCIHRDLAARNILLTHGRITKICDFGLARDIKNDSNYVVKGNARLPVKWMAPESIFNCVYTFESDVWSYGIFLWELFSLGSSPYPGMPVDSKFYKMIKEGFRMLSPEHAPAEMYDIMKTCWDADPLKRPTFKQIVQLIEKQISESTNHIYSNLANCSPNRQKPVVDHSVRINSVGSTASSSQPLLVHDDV

| IC50 [nM] | SMILES |
| --- | --- |
| 64 | Cc1ccn2c(C(=O)Nc3cc(-c4noc(CC[C@](C)(O)C(F)(F)F)n4)ccc3C)cnc2c1 (single isomer, unassigned) [F75] |
| 49 | Cc1ccn2c(C(=O)Nc3cc(-c4noc(CC[C@@](C)(O)C(F)(F)F)n4)ccc3C)cnc2c1 (single isomer, unassigned) [F76] |
| 25 | Cc1ccn2c(C(=O)Nc3cc(-c4noc(CCC(C)(OP(=O)(O)O)C(F)(F)F)n4)ccc3C)cnc2c1 (stereo in doubt) [F270, (R)-1,1,1-trifluoro-2-methyl-4-(3-(4-methyl-3-(7-methylimidazo[1,2-a]pyridine-3-carboxamido)phenyl)-1,2,4-oxadiazol-5-yl)butan-2-yl dihydrogen phosphate] |
| 78 | Cc1ccc(-c2noc(CCC#N)n2)cc1NC(=O)c1cnc2ccccn12 [F1] |
| 63 | Cc1ccc(-c2noc(CCNC(=O)OC(C)(C)C)n2)cc1NC(=O)c1cnc2ccccn12 [F2] |
| 44 | COCCCc1nc(-c2ccc(C)c(NC(=O)c3cnc4ccccn34)c2)no1 [F3] |
| 67 | CCN(CC)C(=O)CCc1nc(-c2ccc(C)c(NC(=O)c3cnc4ccccn34)c2)no1 [F4] |
| 32 | CC(=O)CCc1nc(-c2ccc(C)c(NC(=O)c3cnc4ccccn34)c2)no1 [F5] |
| 8 | Cc1ccc(-c2noc(CNC(=O)OC(C)(C)C)n2)cc1NC(=O)c1cnc2ccccn12 [F6] |
| 87 | CCOC(=O)Cc1nc(-c2ccc(C)c(NC(=O)c3cnc4ccccn34)c2)no1 [F7] |
| 63 | Cc1ccc(-c2noc(CCC(C)(C)O)n2)cc1NC(=O)c1cnc2ccccn12 [F8, N-(5-(5-(3-hydroxy-3-methylbutyl)-1,2,4-oxadiazol-3-yl)-2-methylphenyl)imidazo[1,2-a]pyridine-3-carboxamide] |
| 87 | Cc1ccc(-c2noc(CCC(C)O)n2)cc1NC(=O)c1cnc2ccccn12 (stereo not shown) [F9, N-(5-(5-(3-hydroxybutyl)-1,2,4-oxadiazol-3-yl)-2-methylphenyl)imidazo[1,2-a]pyridine-3-carboxamide] |
| 49 | CCOCc1nc(-c2ccc(C)c(NC(=O)c3cnc4ccccn34)c2)no1 [F12] |
| 93 | Cc1ccc(-c2noc([C@H](C)NC(=O)OC(C)(C)C)n2)cc1NC(=O)c1cnc2ccccn12 [F13] |
| 99 | CO[C@H](C)c1nc(-c2ccc(C)c(NC(=O)c3cnc4ccccn34)c2)no1 [F14] |
| 82 | Cc1ccc(-c2noc(CC(C)(O)C(F)(F)F)n2)cc1NC(=O)c1cnc2ccccn12 (stereo not shown) [F15] |
| 22 | Cc1ccc(-c2noc(CC(O)(C(F)(F)F)C(F)(F)F)n2)cc1NC(=O)c1cnc2ccccn12 [F16] |
| 67 | Cc1ccc(-c2noc(C(CO)(CO)NS(C)(=O)=O)n2)cc1NC(=O)c1cnc2ccccn12 [F17, N-(5-(5-(1,3-dihydroxy-2-(methylsulfonamido)propan-2-yl)-1,2,4-oxadiazol-3-yl)-2-methylphenyl)imidazo[1,2-a]pyridine-3-carboxamide] |
| 98 | Cc1ccc(-c2noc([C@@H](C)NS(C)(=O)=O)n2)cc1NC(=O)c1cnc2ccccn12 [F18] |
| 57 | Cc1ccc(-c2noc(CN(C)C(=O)OC(C)(C)C)n2)cc1NC(=O)c1cnc2ccccn12 [F19, tert-butyl (3-(3-(imidazo[1,2-a]pyridine-3-carboxamido)-4-methylphenyl)-1,2,4-oxadiazol-5-yl)methyl(methyl)carbamate] |
| 61 | CCS(=O)(=O)NCc1nc(-c2ccc(C)c(NC(=O)c3cnc4ccccn34)c2)no1 [F20] |
| 55 | CCN(Cc1nc(-c2ccc(C)c(NC(=O)c3cnc4ccccn34)c2)no1)C(=O)OC(C)(C)C [F21] |
| 89 | CCN(Cc1nc(-c2ccc(C)c(NC(=O)c3cnc4ccccn34)c2)no1)S(C)(=O)=O [F22] |
| 59 | CCN(Cc1nc(-c2ccc(C)c(NC(=O)c3cnc4ccccn34)c2)no1)C(=O)OC [F23] |
| 56 | Cc1ccc(-c2noc(CNC(=O)C(F)(F)F)n2)cc1NC(=O)c1cnc2ccccn12 [F24, N-(2-methyl-5-(5-((2,2,2-trifluoroacetamido)methyl)-1,2,4-oxadiazol-3-yl)phenyl)imidazo[1,2-a]pyridine-3-carboxamide] |
| 79 | Cc1ccc(-c2noc(CNS(=O)(=O)C(C)C)n2)cc1NC(=O)c1cnc2ccccn12 [F25] |
| 59 | COCCOCc1nc(-c2ccc(C)c(NC(=O)c3cnc4ccccn34)c2)no1 [F26] |

| IC50 [nM] | SMILES |
| --- | --- |
| 22 | Cc1ccc(-c2noc(CC(=O)OC(C)(C)C)n2)cc1NC(=O)c1cnc2ccccn12 [F27, tert-butyl 2-(3-(3-(imidazo[1,2-a]pyridine-3-carboxamido)-4-methylphenyl)-1,2,4-oxadiazol-5-yl)acetate] |
| 7 | Cc1ccc(-c2noc(CCOCC(F)(F)F)n2)cc1NC(=O)c1cnc2ccccn12 [F28] |
| 80 | CCOC(=O)NCc1nc(-c2ccc(C)c(NC(=O)c3cnc4ccccn34)c2)no1 [F29] |
| 61 | Cc1ccc(-c2noc(CNC(=O)OC(C)C)n2)cc1NC(=O)c1cnc2ccccn12 [F30] |
| 58 | Cc1ccc(-c2noc(C[C@@H](O)C(F)(F)F)n2)cc1NC(=O)c1cnc2ccccn12 [F31] |
| 72 | CCOCCOCc1nc(-c2ccc(C)c(NC(=O)c3cnc4ccccn34)c2)no1 [F32] |
| 81 | Cc1ccc(-c2noc(COCCOC(C)C)n2)cc1NC(=O)c1cnc2ccccn12 [F33, N-(5-(5-((2-isopropoxyethoxy)methyl)-1,2,4-oxadiazol-3-yl)-2-methylphenyl)imidazo[1,2-a]pyridine-3-carboxamide] |
| 93 | Cc1ccc(-c2noc(COCCOC(C)(C)C)n2)cc1NC(=O)c1cnc2ccccn12 [F34] |
| 43 | Cc1ccc(-c2noc(CNC(=O)CC(F)(F)F)n2)cc1NC(=O)c1cnc2ccccn12 [F35] |
| 87 | Cc1ccc(-c2noc(CCC(C)(C)O)n2)cc1NC(=O)c1cnc2ccc(F)cn12 [F36, 6-fluoro-N-(5-(5-(3-hydroxy-3-methylbutyl)-1,2,4-oxadiazol-3-yl)-2-methylphenyl)imidazo[1,2-a]pyridine-3-carboxamide] |
| 92 | COCCOCc1nc(-c2ccc(C)c(NC(=O)c3cnc4ccc(F)cn34)c2)no1 [F37] |
| 47 | CCOC(=O)NCc1nc(-c2ccc(C)c(NC(=O)c3cnc4ccc(F)cn34)c2)no1 [F38] |
| 8 | Cc1ccc(-c2noc(COCC(F)(F)F)n2)cc1NC(=O)c1cnc2ccccn12 [F39] |
| 71 | Cc1ccc(-c2noc(CNC(=O)OCC(F)F)n2)cc1NC(=O)c1cnc2ccccn12 [F40, 2,2-difluoroethyl ((3-(3-(imidazo[1,2-a]pyridine-3-carboxamido)-4-methylphenyl)-1,2,4-oxadiazol-5-yl)methyl)carbamate] |
| 23 | COC(=O)NCc1nc(-c2ccc(C)c(NC(=O)c3cnc4cc(-c5cnn(CCN6CCOCC6)c5)ccn34)c2)no1 [F41] |
| 9 | Cc1ccc(-c2noc(CCC(C)(C)O)n2)cc1NC(=O)c1cnc2cc(-c3ccn(C)n3)ccn12 [F42] |
| 46 | Cc1nc(-c2ccc(C)c(NC(=O)c3cnc4ccc(-c5cn[nH]c5)cn34)c2)no1 [F43] |
| 25 | Cc1nc(-c2ccc(C)c(NC(=O)c3cnc4ccc(-c5cnn(C)c5)cn34)c2)no1 [F44] |
| 24 | Cc1nc(-c2ccc(C)c(NC(=O)c3cnc4ccc(-c5cnn(CC(C)(C)O)c5)cn34)c2)no1 [F45] |
| 13 | Cc1ccc(Nc2noc(C(C)(C)CO)n2)cc1NC(=O)c1cnc2ccccn12 [F46, N-(5-(5-(1-hydroxy-2-methylpropan-2-yl)-1,2,4-oxadiazol-3-ylamino)-2-methylphenyl)imidazo[1,2-a]pyridine-3-carboxamide] |
| 50 | Cc1nc(-c2ccc(C)c(NC(=O)c3cnc4ccc(-c5cscn5)cn34)c2)no1 [F47] |
| 7 | Cc1nc(-c2ccc(C)c(NC(=O)c3cnc4ccc(-c5sc(C)nc5C)cn34)c2)no1 [F48] |
| 53 | Cc1nc(-c2ccc(C)c(NC(=O)c3cnc4ccc(-c5c(C)noc5C)cn34)c2)no1 [F49] |
| 52 | Cc1ccn2c(C(=O)Nc3cc(-c4noc(CCC(C)(C)O)n4)ccc3C)cnc2c1 [F50, N-(5-(5-(3-hydroxy-3-methylbutyl)-1,2,4-oxadiazol-3-yl)-2-methylphenyl)-7-methylimidazo[1,2-a]pyridine-3-carboxamide] |
| 95 | Cc1nc(-c2ccc(C)c(NC(=O)c3cnc4ccc(-c5cnn(CCN6CCOCC6)c5)cn34)c2)no1 [F51] |
| 16 | [2H]c1c([2H])c([2H])n2c(C(=O)Nc3cc(-c4noc(CC=C(C)C)n4)ccc3C)cnc2c1[2H] [F52] |
| 61 | [2H]c1c([2H])c([2H])n2c(C(=O)Nc3cc(-c4noc(COCCOC)n4)ccc3C)cnc2c1[2H] [F53, N-(5-(5-((2-methoxyethoxy)methyl)-1,2,4-oxadiazol-3-yl)-2-methylphenyl)5,6,7,8,deutero-imidazo[1,2-a]pyridine-3-carboxamide] |

| SMILES | IC50 [nM] |
| --- | --- |
| COP(=O)(OC)OC(C)(CCc1nc(-c2ccc(C)c(NC(=O)c3cnc4cc(C)ccn34)c2)no1)C(F)(F)F (single isomer, unassigned) [F267] | 56 |
| COP(=O)(OC)OC(C)(CCc1nc(-c2ccc(C)c(NC(=O)c3cnc4cc(C)ccn34)c2)no1)C(F)(F)F (single isomer, unassigned) [F269] | 50 |
| CCOCCc1nc(-c2ccc(C)c(NC(=O)c3cnc4ccccn34)c2)no1 [F10] | 42 |
| Cc1nc(-c2ccc(C)c(NC(=O)c3cnc4ccccn34)c2)no1 [F11] | 86 |
